In patent US8946439B2, “Amide compounds, compositions and uses thereof” (Evotec AG, priority 2008, dated 2015) one finds IC50 data, which are given here for 35 compounds.

For one test, the target named is T1, hP2X2/3H (Homo sapiens, UniProt P56373+Q9UBL9).
T1 construct: expressed in transfected cells; host or cells: e.g. HEK293 or 1321N1
T1 sequence (Q9UBL9 1-471): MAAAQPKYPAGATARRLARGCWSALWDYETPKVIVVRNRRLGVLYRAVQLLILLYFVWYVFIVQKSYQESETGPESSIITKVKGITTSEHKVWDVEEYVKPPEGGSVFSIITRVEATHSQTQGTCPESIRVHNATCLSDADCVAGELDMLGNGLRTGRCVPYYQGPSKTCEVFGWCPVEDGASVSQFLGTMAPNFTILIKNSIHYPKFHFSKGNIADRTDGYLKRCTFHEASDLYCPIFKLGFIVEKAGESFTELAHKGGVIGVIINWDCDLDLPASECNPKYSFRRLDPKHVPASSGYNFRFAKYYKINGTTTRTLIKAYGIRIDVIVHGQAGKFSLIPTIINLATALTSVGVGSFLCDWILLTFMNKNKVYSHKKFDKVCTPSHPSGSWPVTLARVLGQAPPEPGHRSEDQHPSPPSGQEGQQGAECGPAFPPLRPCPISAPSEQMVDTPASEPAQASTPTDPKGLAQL
T1 sequence (P56373 1-397): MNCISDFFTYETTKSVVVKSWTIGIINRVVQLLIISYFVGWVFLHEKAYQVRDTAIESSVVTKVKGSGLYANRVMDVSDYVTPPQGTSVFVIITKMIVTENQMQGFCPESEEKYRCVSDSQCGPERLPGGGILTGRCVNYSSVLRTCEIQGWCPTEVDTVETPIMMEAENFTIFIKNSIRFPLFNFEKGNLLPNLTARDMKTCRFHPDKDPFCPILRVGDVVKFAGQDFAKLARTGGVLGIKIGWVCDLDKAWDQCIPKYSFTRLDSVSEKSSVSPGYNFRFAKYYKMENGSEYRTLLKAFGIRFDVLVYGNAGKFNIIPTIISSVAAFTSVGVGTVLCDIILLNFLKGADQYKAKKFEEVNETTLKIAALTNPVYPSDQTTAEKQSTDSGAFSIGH
As to the kind of experiment: Calcium uptake assay (P2X antagonist assay), P2X2/3 heteromer. Type of test: cell-based. As to conditions: Ca influx (calcium uptake assay), hP2X2/3H; read-out: IC50 hP2X2/3H. The method in brief: (§1)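 Stably or transiently transfected HEK293 or 1321N1 cells; the heteromer is made by adding P2X3 to a P2X2-stable line, with heteromer function isolated pharmacologically. The peak-minus-baseline FLIPR calcium signal gives % inhibition and a 4-parameter-logistic IC50.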

The next test has as its target T2, hP2X3 (Homo sapiens, UniProt P56373).
T2 construct: expressed in transfected cells; host or cells: e.g. HEK293 or 1321N1
T2 sequence (P56373 1-397): T1 sequence (P56373 1-397)
As to the kind of experiment: Calcium uptake assay (P2X antagonist assay), P2X3 homomer. Type of test: cell-based. As to conditions: Ca influx (calcium uptake assay), hP2X3; read-out: IC50 hP2X3. The gist of the method:
as §1

The structures appear in SMILES notation. Bounds are passed on as bounds.

Take `Cc1ccc(-c2cc(OC(F)(F)F)cc(C(=O)NCc3ccc(C)nc3)c2)nc1` [Compound 220, 3-(5-Methylpyridin-2-yl)-N-((6-methylpyridin-3-yl)methyl)-5-(trifluoromethoxy)benzamide]: the IC50 at hP2X2/3H was greater than 1 µM; at hP2X3 it was 0.1 to 0.5 µM.
In the case of `Cc1ccc(-c2cc(C(=O)N[C@H](CO)c3cnc(C)nc3)cc(S(C)(=O)=O)c2)cc1` [Compound 221, (S)—N-(2-Hydroxy-1-(2-methylpyrimidin-5-yl)ethyl)-4′-methyl-5-(methylsulfonyl)biphenyl-3-carboxamide], the IC50 on hP2X2/3H and on hP2X3 was less than 0.1 µM each time.
Take `COc1ccc([C@@H](CCO)NC(=O)c2cc(-c3ccc(C)cc3)cc(S(C)(=O)=O)c2)cn1` [Compound 222]: the IC50 at hP2X2/3H and on hP2X3 was less than 0.1 µM each time.
For `Cc1ccc(-c2cc(C(=O)N[C@H](CCO)c3ccc(C(F)(F)F)nc3)cc(S(C)(=O)=O)c2)cc1` [Compound 223], the figures for the IC50 on hP2X2/3H and on hP2X3 were 0.1 to 0.5 µM and less than 0.1 µM, respectively.
On the same counts, the results for `Cc1ccc(-c2cc(C(=O)NCc3ccc(C)[n+]([O-])c3)cc(C(=O)N3CCCC3)c2)cc1` [Compound 224, 2-Methyl-5-((4′-methyl-5-(pyrrolidine-1-carbonyl)biphenyl-3-ylcarboxamido)methyl)pyridine 1-oxide] are less than 0.1 µM and less than 0.1 µM.
Consider `COc1cc(C(=O)N[C@H](C)c2cnc(C)nc2)cc(-c2ccc(C)cn2)c1` [Compound 225, (R)-3-Methoxy-5-(5-methylpyridin-2-yl)-N-(1-(2-methylpyrimidin-5-yl)ethyl)benzamide], for which the IC50 was 0.1 to 0.5 µM at hP2X2/3H and less than 0.1 µM at hP2X3.
With `Cc1ccc(-c2cc(C(=O)N[C@H](CO)c3ccc(C(F)(F)F)nc3)cc(S(C)(=O)=O)c2)cc1` [Compound 226], the results for the IC50 on hP2X2/3H and at hP2X3 were 0.1 to 0.5 µM and less than 0.1 µM, respectively.
On the same counts, the results for `Cc1ccc(-c2cc(C(=O)N[C@H](C)c3ccc(C)nc3)cc(C(O)c3ccccc3)c2)cc1` (stereo partly drawn) [Compound 227, 5-(Hydroxy(phenyl)methyl)-4′-methyl-N—((R)-1-(6-methylpyridin-3-yl)ethyl)biphenyl-3-carboxamide] are less than 0.1 µM and 0.1 to 0.5 µM.
On the same counts, the results for `Cc1ccc(-c2cc(C(=O)NCc3ccc(C)nc3)cc(C(O)c3ccccc3)c2)cc1` (stereo not shown) [Compound 228] are 0.1 to 0.5 µM and 0.1 to 0.5 µM.
Take `Cc1ccc(-c2cc(C(=O)N[C@H](C)c3ccc(C)nc3)cc(C(=O)c3ccccc3)c2)cc1` [Compound 229, (R)-5-Benzoyl-4′-methyl-N-(1-(6-methylpyridin-3-yl)ethyl)biphenyl-3-carboxamide]: the values for the IC50 on hP2X2/3H and at hP2X3 were less than 0.1 µM and 0.1 to 0.5 µM, respectively.
On the same counts, the results for `Cc1ccc(-c2cc(C(=O)NCc3ccc(C)nc3)cc(C(O)CN3CCCC3)c2)cc1` (stereo not shown) [Compound 230] are 0.1 to 0.5 µM and less than 0.1 µM.
Regarding `Cc1ccc(-c2cc(C(=O)NCc3cnc4[nH]ccc4c3)cc(C(=O)N3CCCC3)c2)cc1` [Compound 231], the IC50 on hP2X2/3H and at hP2X3 was greater than 1 µM each time.
`Cc1ccc(-c2cc(Oc3ncccn3)cc(C(=O)N[C@H](C)c3ccc(C)nc3)c2)cc1` [Compound 232, (R)-4′-Methyl-N-(1-(6-methylpyridin-3-yl)ethyl)-5-(pyrimidin-2-yloxy)biphenyl-3-carboxamide]: the IC50 at hP2X2/3H and at hP2X3 was less than 0.1 µM in each case.
`Cc1ccc(-c2cc(Oc3ncccn3)cc(C(=O)NCc3ccc(C)nc3)c2)cc1` [Compound 233]: the IC50 on hP2X2/3H and at hP2X3 was 0.1 to 0.5 µM in each case.
On to `Cc1ccc(-c2cc(Oc3ncccn3)cc(C(=O)NCc3cnc(C)nc3)c2)cc1` [Compound 234], for which the IC50 on hP2X2/3H is 0.501 to 1 µM; on hP2X3 it was 0.1 to 0.5 µM.
Turning to `Cc1ccc(-c2cc(Oc3ncccn3)cc(C(=O)N[C@H](C)c3cnc(C)nc3)c2)cc1` [Compound 235], the figures for the IC50 on hP2X2/3H and at hP2X3 were 0.1 to 0.5 µM and less than 0.1 µM, respectively.
For `Cc1ccc(-c2cc(Oc3nccs3)cc(C(=O)N[C@H](C)c3cnc(C)nc3)c2)cc1` [Compound 236, (R)-4′-Methyl-N-(1-(2-methylpyrimidin-5-yl)ethyl)-5-(thiazol-2-yloxy)biphenyl-3-carboxamide], the IC50 on hP2X2/3H and on hP2X3 was less than 0.1 µM throughout.
For the compound `Cc1ccc(-c2cc(Oc3nccs3)cc(C(=O)NCc3cnc(C)nc3)c2)cc1` [Compound 237], the IC50 on hP2X2/3H was 0.1 to 0.5 µM; at hP2X3, less than 0.1 µM.
Turning to `Cc1ccc(-c2cc(Oc3nccs3)cc(C(=O)NCc3ccc(C)nc3)c2)cc1` [Compound 238], the IC50 at hP2X2/3H and at hP2X3 was 0.1 to 0.5 µM throughout.
With `Cc1ccc(-c2cc(Oc3nccs3)cc(C(=O)N[C@H](C)c3ccc(C)nc3)c2)cc1` [Compound 239], the IC50 at hP2X2/3H and on hP2X3 was less than 0.1 µM each time.
With `Cc1ccc(-c2cc(C(=O)NCc3ccc(C)nc3)cc(C(O)c3ccccn3)c2)cc1` (stereo not shown) [Compound 240, 5-(Hydroxy(pyridin-2-yl)methyl)-4′-methyl-N-((6-methylpyridin-3-yl)methyl)biphenyl-3-carboxamide], the IC50 at hP2X2/3H and on hP2X3 was less than 0.1 µM in each case.
`Cc1ccc(-c2cc(C(=O)N[C@H](C)c3ccc(C)nc3)cc(C(O)c3ccccn3)c2)cc1` (stereo partly drawn) [Compound 241, 5-(Hydroxy(pyridin-2-yl)methyl)-4′-methyl-N—((R)-1-(6-methylpyridin-3-yl)ethyl)biphenyl-3-carboxamide]: the IC50 on hP2X2/3H and at hP2X3 was less than 0.1 µM each time.
With `Cc1ccc(-c2cc(Oc3ccccn3)cc(C(=O)N[C@H](C)c3ccc(C)nc3)c2)cc1` [Compound 242, (R)-4′-Methyl-N-(1-(6-methylpyridin-3-yl)ethyl)-5-(pyridin-2-yloxy)biphenyl-3-carboxamide], the IC50 at hP2X2/3H is less than 0.1 µM; at hP2X3 it was 0.1 to 0.5 µM.
On the same counts, the results for `Cc1ccc(-c2cc(Oc3ccccn3)cc(C(=O)N[C@H](C)c3cnc(C)nc3)c2)cc1` [Compound 243] are less than 0.1 µM and 0.1 to 0.5 µM.
Taken in the same sequence, the figures for `Cc1ccc(-c2cc(CN3CCN(C)CC3)cc(C(=O)NCc3ccc(C)nc3)c2)nc1` [Compound 244] were 0.501 to 1 µM and 0.1 to 0.5 µM.
Taken in the same sequence, the figures for `Cc1ccc(-c2cc(Oc3ncccn3)cc(C(=O)N[C@H](C)c3ccc(C)nc3)c2)c(C#N)c1` [Compound 246] were 0.1 to 0.5 µM and less than 0.1 µM.
`Cc1ccc(-c2cc(Oc3ncccn3)cc(C(=O)N[C@H](C)c3cnc(C)nc3)c2)c(C#N)c1` [Compound 247]: the IC50 was 0.1 to 0.5 µM at hP2X2/3H and less than 0.1 µM at hP2X3.
Taken in the same sequence, the figures for `COCCOc1cc(C(=O)NCc2ccc(C)nc2)cc(-c2ccc(C)cc2)c1` [Compound 248, 5-(2-Methoxyethoxy)-4′-methyl-N-((6-methylpyridin-3-yl)methyl)biphenyl-3-carboxamide] were less than 0.1 µM and less than 0.1 µM.
As to `COCCOc1cc(C(=O)N[C@H](C)c2ccc(C)nc2)cc(-c2ccc(C)cc2)c1` [Compound 249], the IC50 at hP2X2/3H and on hP2X3 was less than 0.1 µM each time.
In the case of `COCCOc1cc(C(=O)NCc2cnc(C)nc2)cc(-c2ccc(C)cc2)c1` [Compound 250], the values for the IC50 on hP2X2/3H and at hP2X3 were 0.1 to 0.5 µM and less than 0.1 µM, respectively.
On the same counts, the results for `COCCOc1cc(C(=O)N[C@H](C)c2cnc(C)nc2)cc(-c2ccc(C)cc2)c1` [Compound 251] are less than 0.1 µM and less than 0.1 µM.
As to `COCCOc1cc(C(=O)N[C@H](C)c2ccc(C)nc2)cc(-c2ccc(C)cc2C#N)c1` [Compound 252], the IC50 at hP2X2/3H and at hP2X3 was less than 0.1 µM in each case.
Turning to `COCCOc1cc(C(=O)N[C@H](C)c2cnc(C)nc2)cc(-c2ccc(C)cc2C#N)c1` [Compound 253], the IC50 at hP2X2/3H and at hP2X3 was less than 0.1 µM throughout.
With `Cc1ccc(-c2cc(Oc3nccs3)cc(C(=O)N[C@H](C)c3cnc(C)nc3)c2)c(C#N)c1` [Compound 254, (R)-2′-Cyano-4′-methyl-N-(1-(2-methylpyrimidin-5-yl)ethyl)-5-(thiazol-2-yloxy)biphenyl-3-carboxamide], the IC50 at hP2X2/3H and at hP2X3 was less than 0.1 µM each time.
In the case of `Cc1ccc(-c2cc(Oc3nccs3)cc(C(=O)N[C@H](C)c3ccc(C)nc3)c2)c(C#N)c1` [Compound 255], the IC50 on hP2X2/3H and at hP2X3 was less than 0.1 µM each time.
